Values after ≈ are worked out from the molar mass of the structure shown.
Experiments:
[1] = tested on: Human lung cancer NCI-H460 cells; assay: In vitro cell proliferation suppressive activity (MTT method); assay type: cell-based; conditions: 3 days culture; for IC50: Homo sapiens, 72 h, read-out: IC50 (concentration at which 50% of the cell proliferation was suppressed), NCI-H460 cells
Protocol: (§1) Proliferation suppressive activities of ellagitannin against various kinds of cancer cell lines were measured in the following manner.
(§2) Each of the following cancer cell lines was placed in a 96-well plate at 5×10^3 cell/100 μL per well using a DMEM medium (product of NISSUI PHARMACEUTICAL CO., LTD.) containing FBS (product of Sigma-Aldrich Co.) in an amount of 10 liquid amount %, and was cultured for 24 hours at 37° C. in an atmosphere of 5% CO2, whereby the cells were allowed to adhere to the plate completely.
(§3) Each of the following ellagitannins was added thereto so as to have final concentrations of 100 μg/mL, 50 μg/mL, 25 μg/mL, 12.5 μg/mL, 6.25 μg/mL, 3.13 μg/mL, 1.56 μg/mL, and 0.78 μg/mL, followed by culturing for 3 days at 37° C. in an atomosphere of 5% CO2.
(§4) In addition, as comparative controls, the 96-well plates to which the cancer cells had been allowed to adhere were cultured for 3 days at 37° C. in an atomosphere of 5% CO2 without addition of ellagitannin.
(§5) After the culturing for 3 days, cell proliferation was measured using the MTT method. The MTT method was performed as follows. Specifically, 10 μL of an MTT solution (a PBS solution containing MTT (3-(4,5-dimethylthiazol-2-yl)-2,5-diphenyltetrazolium bromide) at a concentration of 5 mg/mL) was added to each well and cultured for 4 hours. The formed formazan products were dissolved by adding 100 μL of a 20% SDS solution to each well, and measured for absorbance at 570 nm using LABSYSTEMS MULTISCAN MS (product of DS Pharma Biomedical Co., Ltd.).
(§6) The absorbance of the system involving the addition of the ellagitannin was indicated as “A” and the absorbance of the system of the comparative controls was indicated as “B”, and cell proliferation inhibitory rate (%) was calculated from the following formula (1).
(§7) Cell proliferation inhibitory rate(%)={(B−A)/B}×100 Formula (1)
(§8) Next, the cell proliferation inhibitory rate was used to determine a concentration at which 50% of the cell proliferation was suppressed (IC50 value).

[2] = tested on: Human osteosarcoma SJSA-1 cells; assay: as above; assay type: cell-based; conditions: 3 days culture; for IC50: Homo sapiens, 72 h, read-out: IC50 (concentration at which 50% of the cell proliferation was suppressed), SJSA-1 cells
Protocol: as §1, §2, §3, §4, §5, §6, §7, §8

[3] = tested on: human lung cancer NCI-H460 cells; assay: Antitumor activity-1 in cancer cell-transplanted mice (Test Example 2-1); assay type: in vivo, mouse; conditions: nude mice transplanted with NCI-H460 cells; 12.5 mg/kg, tail vein, twice a week from one week after transplantation; FIG. 2
Protocol: (§9) The antitumor effect of the geraniin was evaluated by observing the proliferation state of the tumor after the transplantation of the cells. Specifically, a longer diameter and a shorter diameter of each tumor were meatured with a caliper, and a tumor volume was measured from the following formula (2). Its average and standard deviation were obtained to determine the effect in the geraniin-administration groups in comparison to the comparative control groups.
(§10) Tumore volume=longer diameter×(shorter diameter)^2÷2 Formula (2)

[4] = tested on: human osteosarcoma SJSA-1 cells; assay: as above; assay type: in vivo, mouse; conditions: nude mice transplanted with SJSA-1 cells; 12.5 mg/kg, tail vein, twice a week from one week after transplantation; FIG. 1
Protocol: as §9, §10

[5] = tested on: human osteosarcoma SJSA-1 cells; assay: Antitumor activity-2 in cancer cell-transplanted mice (Test Example 2-2); assay type: in vivo, mouse; conditions: nude mice transplanted with SJSA-1 cells; 12.5, 6.25 or 3.13 mg/kg, tail vein, twice a week; FIG. 3
From the text: Eugeniin (product of […] Science Co., Ltd.) was used as the ellagitannin and was studied for antitumor activity in the following manner.

| IC50 [1] | IC50 [2] | IC50 (concentration at which 50% of the cell proliferation was suppressed), NCI-H460 cells [1] | IC50 (concentration at which 50% of the cell proliferation was suppressed), SJSA-1 cells [2] | Compound | tumor volume compared with the comparative control group (Saline) [3] | tumor volume compared with the comparative control group (Saline) [4] | tumor volume compared with the comparative control group (Saline) [5] |
| --- | --- | --- | --- | --- | --- | --- | --- |
| 40 µg/mL (≈ 42 µM) | 100 µg/mL (≈ 105 µM) | – | – | O=C1O[C@H]2[C@@H]3OC(=O)c4cc(O)c(O)c(O)c4-c4c(cc(O)c(O)c4O)C(=O)OC[C@H]2O[C@@H](OC(=O)c2cc(O)c(O)c(O)c2)[C@@H]3OC(=O)c2cc(O)c(O)c3c2[C@@H]2C1=CC(=O)[C@](O)(O3)C2(O)O [Geraniin, geraniin] | significantly smaller | significantly smaller | – |
| 32 µg/mL (≈ 40.7 µM) | 46 µg/mL (≈ 58.5 µM) | – | – | O=C(OC1C(O)OC2COC(=O)c3cc(O)c(O)c(O)c3-c3c(cc(O)c(O)c3O)C(=O)OC2C1OC(=O)c1cc(O)c(O)c(O)c1)c1cc(O)c(O)c(O)c1 (stereo not drawn) [Tellimagrandin I, tellimagrandin I] | – | – | – |
| 33 µg/mL (≈ 52 µM) | ≥ 110 µg/mL | – | – | O=C(OC1OC2COC(=O)c3cc(O)c(O)c(O)c3-c3c(cc(O)c(O)c3O)C(=O)OC2C(O)C1O)c1cc(O)c(O)c(O)c1 (stereo not drawn) [Strictinin, strictinin] | – | – | – |
| 5.6 µg/mL (≈ 5.97 µM) | 18 µg/mL (≈ 19.2 µM) | – | – | O=C(O[C@@H]1O[C@@H]2COC(=O)c3cc(O)c(O)c(O)c3-c3c(cc(O)c(O)c3O)C(=O)O[C@H]2[C@H](OC(=O)c2cc(O)c(O)c(O)c2)[C@H]1OC(=O)c1cc(O)c(O)c(O)c1)c1cc(O)c(O)c(O)c1 [Eugeniin, eugeniin] | – | – | significantly smaller |
| 11 µg/mL (≈ 14 µM) | 41 µg/mL (≈ 52.1 µM) | – | – | O=C(OC1OC2COC(=O)c3cc(O)c(O)c(O)c3-c3c(cc(O)c(O)c3O)C(=O)OC2C(OC(=O)c2cc(O)c(O)c(O)c2)C1O)c1cc(O)c(O)c(O)c1 (stereo not drawn) [1,3-di-O-galloyl-4,6-O-hexahydroxydiphenoyl glucose] | – | – | – |
| – | – | 35 µg/mL | 61 µg/mL | casuarictin | – | – | – |
